This is an account of results in US20240116877A1, “KIT KINASE INHIBITORS AND METHODS OF USE THEREOF” (Deciphera Pharmaceuticals, LLC, priority 2021, published 2024).

The test system of one experiment is Ba/F3 KIT mutant cells. Briefly: Ba/F3 mutant KIT Cell Proliferation Assays (resazurin). It counts as cell-based. Conditions: Mus musculus, BaF3. The method, boiled down:
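IC50 values come from resazurin fluorescence (ex 540, em 600) after 5 h dye exposure, added as a 440 μM solution. Cells were IL-3-independent Ba/F3 expressing mutant KIT from a lentiviral vector, puromycin-selected.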
A general note: The colour change of resazurin is a common sign of viable cells or microbes.

The next experiment concerns GIST 430 cells. Briefly: GIST 430 Cell Proliferation Assay (resazurin). Conditions: Homo sapiens; GIST430 cell proliferation. It counts as cell-based. The method, boiled down:
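Five thousand cells per well were exposed to serially diluted compound in complete growth medium for 115 h at 37 degrees Celsius, 5% CO2. Resazurin was then added for a further 5 h, fluorescence read at 540 nm excitation/600 nm emission, and IC50 values calculated.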

A further experiment has as its target c-KIT kinase (uKIT) (Homo sapiens (Human), UniProt P10721). Nature of the experiment: Biochemical Assay for uKIT (coupled pyruvate kinase/lactate dehydrogenase assay). Conditions: Inhibition of biochemical activity of uKIT kinase; 1 mM ATP. The method, boiled down:
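Continuous coupled PK/LDH assay following NADH oxidation at 340 nm for 6 h at 30° C, with 16 nM or 4.36 nM KIT (two constructs), 0.7 mg/mL PE4Y, 1 mM ATP, pH 7.5. Rates from the 2-3 h window converted to percent inhibition versus controls; IC50 fitted.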

Setting [1] is: Ba/F3 KIT AYdup-V654A mutant cell proliferation, read-out: AYdup-V654A IC50.
The mark [2] stands for this setting: Ba/F3 KIT exon11del-V654A mutant cell proliferation, read-out: exon11del-V654A IC50.
[3] abbreviates: Ba/F3 KIT exon11del-Y823D mutant cell proliferation, read-out: exon11del-Y823D IC50.

Read-outs that look alike come from different tables or passages of the source. A value given as a limit tells only on which side of the number the result lay.

c-KIT kinase (uKIT), sequence (P10721 other isoform, or with tags, fused parts or gaps): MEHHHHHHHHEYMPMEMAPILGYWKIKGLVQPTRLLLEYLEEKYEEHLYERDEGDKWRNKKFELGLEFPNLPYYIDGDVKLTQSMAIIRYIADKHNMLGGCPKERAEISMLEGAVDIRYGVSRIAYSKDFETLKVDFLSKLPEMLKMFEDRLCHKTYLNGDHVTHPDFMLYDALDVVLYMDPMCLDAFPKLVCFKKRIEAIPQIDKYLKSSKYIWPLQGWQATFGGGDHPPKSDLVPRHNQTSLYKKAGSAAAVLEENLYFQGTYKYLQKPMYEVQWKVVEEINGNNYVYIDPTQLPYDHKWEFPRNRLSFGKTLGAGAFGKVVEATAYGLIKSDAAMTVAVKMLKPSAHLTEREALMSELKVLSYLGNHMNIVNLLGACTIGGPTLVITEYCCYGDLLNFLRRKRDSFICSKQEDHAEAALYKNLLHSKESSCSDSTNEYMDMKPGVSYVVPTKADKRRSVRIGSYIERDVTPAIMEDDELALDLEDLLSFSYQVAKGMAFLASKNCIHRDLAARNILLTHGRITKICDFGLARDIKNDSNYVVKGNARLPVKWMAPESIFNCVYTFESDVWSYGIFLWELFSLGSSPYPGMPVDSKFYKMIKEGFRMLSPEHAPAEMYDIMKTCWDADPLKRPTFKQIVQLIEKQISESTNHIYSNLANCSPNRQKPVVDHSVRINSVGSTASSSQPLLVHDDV

As usually defined, the IC50 is the midpoint of a concentration-inhibition curve. For the compound `COCCOc1cc(F)c2c(Nc3ccc(NC(=O)CC(=O)N4CC[C@H](C)C4)cc3)ncnc2c1` [Example 191], the 50% inhibitory concentration (IC50) was in the range of 100 to 1000 nM in the experiment with Ba/F3 KIT mutant cells (setting [1]); 100 to 1000 nM with Ba/F3 KIT mutant cells (setting [2]); 100 to 1000 nM in the experiment with Ba/F3 KIT mutant cells (setting [3]); 100 to 1000 nM with GIST 430 cells; 10 to 100 nM on c-KIT kinase (uKIT).

For the compound `COCCOc1cc(OC)c2c(Nc3ccc(NC(=O)CC(=O)N(C)C(C)(C)C)cc3)ncnc2c1` [Example 192], the IC50 in the experiment on Ba/F3 KIT mutant cells (setting [1]) lay within 10 to 100 nM; in the experiment on Ba/F3 KIT mutant cells (setting [2]), 100 to 1000 nM; in the experiment with Ba/F3 KIT mutant cells (setting [3]), 10 to 100 nM; in the experiment on GIST 430 cells, 10 to 100 nM; against c-KIT kinase (uKIT), 10 to 100 nM.

Turning to `CC(C)(F)CCNC(=O)Nc1ccc(Nc2ncnc3cc(OCCCN4CCOCC4)cc(F)c23)cc1` [Example 195], the IC50 was 10 to 100 nM in the experiment with Ba/F3 KIT mutant cells (setting [1]); 10 to 100 nM in the experiment on Ba/F3 KIT mutant cells (setting [2]); 10 to 100 nM in the experiment on Ba/F3 KIT mutant cells (setting [3]); at most 10 nM in the experiment on GIST 430 cells; at most 10 nM at c-KIT kinase (uKIT).

In the case of `COCCOc1cc(F)c2c(Nc3ccc(NC(=O)CC(=O)N4CCC[C@@H]4C)cc3)ncnc2c1` [Example 196], the 50% inhibitory concentration (IC50) is 10 to 100 nM with Ba/F3 KIT mutant cells (setting [1]); 100 to 1000 nM in the experiment on Ba/F3 KIT mutant cells (setting [2]); 100 to 1000 nM in the experiment with Ba/F3 KIT mutant cells (setting [3]); 10 to 100 nM in the experiment with GIST 430 cells; 10 to 100 nM against c-KIT kinase (uKIT).

In the case of `COCCOc1cc(F)c2c(Nc3ccc(NC(=O)CC(=O)N4CCC[C@H]4C)cc3)ncnc2c1` [Example 197], the IC50 with Ba/F3 KIT mutant cells (setting [1]) was in the range of 10 to 100 nM; in the experiment on Ba/F3 KIT mutant cells (setting [2]), 100 to 1000 nM; in the experiment with Ba/F3 KIT mutant cells (setting [3]), 100 to 1000 nM; in the experiment with GIST 430 cells it was 10 to 100 nM; against c-KIT kinase (uKIT), 10 to 100 nM.

`COCCOc1cc(F)c2c(Nc3ccc(NC(=O)CC(=O)N4CC[C@@H](C)C4)cc3)ncnc2c1` [Example 198]: the IC50 with Ba/F3 KIT mutant cells (setting [1]) is 10 to 100 nM; in the experiment with Ba/F3 KIT mutant cells (setting [2]), 100 to 1000 nM; in the experiment with Ba/F3 KIT mutant cells (setting [3]), 100 to 1000 nM; in the experiment with GIST 430 cells, 10 to 100 nM; on c-KIT kinase (uKIT), 10 to 100 nM.
